#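 Method: 48-hour compound exposure of cells in 96-well plates, five concentrations, linear interpolation of endpoints. GI50: concentration for 50% inhibition of growth.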 Calls of active or inactive are those of the source. Rule as the data show it: active = GI50 up to about 1.1 µM and inactive = higher.
# Legend:
# Experiment in all cases: NCI anticancer screen, dose series, 48 h
# CAKI-1 = system: CAKI-1
# OVCAR-8 = system: OVCAR-8
# MDA-MB-231 = system: MDA-MB-231
# K562 = system: K562
# PC-3 = system: PC-3
# MOLT-4 = system: MOLT-4
# HCT-15 = system: HCT-15
# CCRF-CEM = system: CCRF-CEM
# SNB-19 = system: SNB-19
# A498 = system: A498
# T47D = system: T47D
# NCI-H460 = system: NCI-H460
# MDA-MB-435 = system: MDA-MB-435
# TK-10 = system: TK-10
# SF-295 = system: SF-295
# RPMI-8226 = system: RPMI-8226
# SK-MEL-28 = system: SK-MEL-28
# NCI/ADR-RES = system: NCI/ADR-RES
# UACC-257 = system: UACC-257
# SR = system: SR
Structure (SMILES),GI50 (CAKI-1),GI50 (OVCAR-8),GI50 (MDA-MB-231),GI50 (K562),GI50 (PC-3),GI50 (MOLT-4),GI50 (HCT-15),GI50 (CCRF-CEM),GI50 (SNB-19),GI50 (A498),GI50 (T47D),GI50 (NCI-H460),GI50 (MDA-MB-435),GI50 (TK-10),GI50 (SF-295),GI50 (RPMI-8226),GI50 (SK-MEL-28),GI50 (NCI/ADR-RES),GI50 (UACC-257),GI50 (SR)
COc1cc2cc(C(=O)N3CC(CCl)c4c3cc(N)c3ccccc43)[nH]c2cc1OCCN(C)C (stereo not given),< 0.005 µM (active),< 0.005 µM (active),< 0.005 µM (active),< 0.005 µM (active),< 0.005 µM (active),0.0561 µM (active),0.00553 µM,< 0.005 µM (active),0.00644 µM (active),0.00546 µM (active),< 0.005 µM (active),< 0.005 µM (active),< 0.005 µM (active),0.00522 µM (active),< 0.005 µM (active),< 0.005 µM (active),0.00705 µM (active),0.00931 µM (active),0.00993 µM (active),
CCC(CON(C)c1ccccc1)(SC)SC,> 100 µM (inactive),> 100 µM (inactive),> 100 µM (inactive),,> 100 µM (inactive),> 100 µM (inactive),> 100 µM,> 100 µM (inactive),> 100 µM (inactive),,13.3 µM (inactive),> 100 µM (inactive),> 100 µM (inactive),> 100 µM (inactive),> 100 µM (inactive),> 100 µM (inactive),> 100 µM (inactive),> 100 µM (inactive),> 100 µM (inactive),> 100 µM (inactive)
CCOC(=O)C1=CNC(C(=O)OCC)C1c1cccn1-c1ccc(Cl)cc1[N+](=O)[O-] (stereo not given),20 µM (inactive),25.8 µM (inactive),10 µM (inactive),23.8 µM (inactive),20.7 µM (inactive),22.1 µM (inactive),21.5 µM,24.5 µM (inactive),,50.7 µM (inactive),24.2 µM (inactive),15.4 µM (inactive),21.5 µM (inactive),13.1 µM (inactive),16.4 µM (inactive),,26.2 µM (inactive),18.5 µM (inactive),24.4 µM (inactive),25.7 µM (inactive)
ClC(Cl)(Cl)C1CCOC1n1nc2ccccc2n1 (stereo not given),> 100 µM (inactive),> 100 µM (inactive),> 100 µM (inactive),> 100 µM (inactive),> 100 µM (inactive),> 100 µM (inactive),> 100 µM,> 100 µM (inactive),,> 100 µM (inactive),> 100 µM (inactive),> 100 µM (inactive),> 100 µM (inactive),> 100 µM (inactive),> 100 µM (inactive),,,> 100 µM (inactive),> 100 µM (inactive),> 100 µM (inactive)
CCOC(=O)c1nc2ccc(C(F)(F)F)cc2nc1Oc1ccc(OC)cc1,9.42 µM (inactive),> 100 µM (inactive),> 100 µM (inactive),> 100 µM (inactive),> 100 µM (inactive),> 100 µM (inactive),> 100 µM,> 100 µM (inactive),> 100 µM (inactive),> 100 µM (inactive),> 100 µM (inactive),> 100 µM (inactive),> 100 µM (inactive),> 100 µM (inactive),> 100 µM (inactive),> 100 µM (inactive),> 100 µM (inactive),> 100 µM (inactive),> 100 µM (inactive),
COc1c2ccoc2nc2c(OC)c(OCC(O)C(C)(C)O)ccc12 (stereo not given) [EVOXINE],> 100 µM (inactive),> 100 µM (inactive),75.3 µM (inactive),> 100 µM (inactive),> 100 µM (inactive),> 100 µM (inactive),> 100 µM,> 100 µM (inactive),> 100 µM (inactive),> 100 µM (inactive),> 100 µM (inactive),> 100 µM (inactive),> 100 µM (inactive),> 100 µM (inactive),> 100 µM (inactive),> 100 µM (inactive),> 100 µM (inactive),> 100 µM (inactive),> 100 µM (inactive),
